Patent US20100063065A1 (Inpharmatica Limited, priority 2005, published 2010)

target: T1, PPARδ (Homo sapiens, UniProt Q03181); assay: Transactivation assay (PPARδ GAL4 assay) in transiently transfected HEK293 cells; assay type: cell-based; settings: luciferase reporter, Table 2
T1 construct: fused to amino acids 147-441 of PPARδ downstream of CMV promoter; expressed in transfected cells; host or cells: HEK293 cells, transiently transfected with pFACMV-PPARδ using Fugene
T1 sequence (Q03181 147-441): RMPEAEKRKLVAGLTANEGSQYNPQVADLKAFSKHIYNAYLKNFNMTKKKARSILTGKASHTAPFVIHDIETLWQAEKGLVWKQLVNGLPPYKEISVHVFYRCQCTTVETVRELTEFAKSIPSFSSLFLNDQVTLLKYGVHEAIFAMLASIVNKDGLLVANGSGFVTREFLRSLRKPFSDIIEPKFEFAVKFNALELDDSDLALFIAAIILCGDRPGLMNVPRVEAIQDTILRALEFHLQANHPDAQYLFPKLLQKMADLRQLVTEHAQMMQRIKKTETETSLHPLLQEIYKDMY
How it was run: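 Luciferase luminescence after 24 h compound treatment (0-30 μM final, OptiMEM, 37° C./5% CO2) gave EC50 by sigmoidal fitting, with activity normalised to GW501516 as percent. Reporter system: transiently transfected HEK293 expressing GAL4 DNA-binding domain fused to human PPARδ aa 147-441, plus 5×GAL4-driven luciferase.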

Structure (SMILES)	EC50
CCc1cc(C(=O)c2cc3cc(OC(F)(F)F)ccc3n2C)c(NC(=O)CCC(C)(C)C(=O)O)s1 [Example 152, 4-[5-Ethyl-3-(1-methyl-5-trifluoromethoxy-H-indole-2-carbonyl)-thiophen-2-ylcarbamoyl]-2,2-dimethyl-butyric acid]	< 100 nM
CCc1cc(C(=O)c2nc3ccc(OC(F)(F)F)cc3s2)c(NC(=O)CSCC(=O)O)s1 [Example 153, {[5-Ethyl-3-(6-trifluoromethoxy-benzothiazole-2-carbonyl)-thiophen-2-ylcarbamoyl]-methylsulfanyl}-acetic acid]	100 to 1000 nM
CCc1cc(C(=O)c2nc3ccc(Cl)cc3s2)c(NC(=O)CSCC(=O)O)s1 [Example 154, {[3-(6-Chloro-benzothiazole-2-carbonyl)-5-ethyl-thiophen-2-ylcarbamoyl]-methylsulfanyl}-acetic acid]	100 to 1000 nM
CCc1cc(C(=O)c2nc3cc(Cl)ccc3s2)c(NC(=O)CSCC(=O)O)s1 [Example 155, {[3-(5-Chloro-benzothiazole-2-carbonyl)-5-ethyl-thiophen-2-ylcarbamoyl]-methylsulfanyl}-acetic acid]	100 to 1000 nM
CCc1cc(C(=O)c2ccc3cc(Cl)ccc3n2)c(NC(=O)CSCC(=O)O)s1 [Example 156, {[3-(6-Chloro-quinoline-2-carbonyl)-5-ethyl-thiophen-2-ylcarbamoyl]-methylsulfanyl}-acetic acid]	100 to 1000 nM
CCc1cc(C(=O)c2cn(C)c3ccc(Cl)cc23)c(NC(=O)CSCC(=O)O)s1 [Example 157, {[3-(5-Chloro-1-methyl-1H-indole-3-carbonyl)-5-ethyl-thiophen-2-ylcarbamoyl]-methylsulfanyl}-acetic acid]	100 to 1000 nM
CCc1cc(C(=O)c2ccc(OC(F)(F)F)cc2)c(NC(=O)C(C)NCC(=O)O)s1 (stereo not shown) [Example 158, {1-[5-Ethyl-3-(4-trifluoromethoxy-benzoyl)-thiophen-2-ylcarbamoyl]-ethylamino}-acetic acid]	100 to 1000 nM
CCc1cc(C(=O)c2ccc(OC(F)(F)F)cc2)c(NC(=O)CN2CCCC(C(=O)O)C2)s1 (stereo not shown) [Example 159, 1-{[5-Ethyl-3-(4-trifluoromethoxy-benzoyl)-thiophen-2-ylcarbamoyl]-methyl}-piperidine-3-carboxylic acid]	100 to 1000 nM
CCc1cc(C(=O)c2ccc(OC(F)(F)F)cc2)c(NC(=O)CN[C@@H](C)C(=O)O)s1 [Example 160, (S)-2-({[5-Ethyl-3-(4-trifluoromethoxy-benzoyl)-thiophen-2-ylcarbamoyl]-methyl}-amino)-propionic acid]	100 to 1000 nM
CCc1cc(C(=O)c2ccc(OC(F)(F)F)cc2)c(NC(=O)CN[C@H](C)C(=O)O)s1 [Example 161, (R)-2-({[5-Ethyl-3-(4-trifluoromethoxy-benzoyl)-thiophen-2-ylcarbamoyl]-methyl}-amino)-propionic acid]	100 to 1000 nM
CCc1cc(C(=O)c2ccc(OC(F)(F)F)cc2)c(NC(=O)CN2CCC(C(=O)O)C2)s1 (stereo not shown) [Example 162, 1-{[5-Ethyl-3-(4-trifluoromethoxy-benzoyl)-thiophen-2-ylcarbamoyl]-methyl}-pyrrolidine-3-carboxylic acid]	100 to 1000 nM

Continued, values first:

EC50	Structure (SMILES)
100 to 1000 nM	CCc1cc(C(=O)c2ccc(OC(F)(F)F)cc2)c(NC(=O)CN2CCC(C(=O)O)CC2)s1 [Example 163, 1-{[5-Ethyl-3-(4-trifluoromethoxy-benzoyl)-thiophen-2-ylcarbamoyl]-methyl}-piperidine-4-carboxylic acid]
< 100 nM	CCc1cc(C(=O)c2ccc(OC(F)(F)F)cc2)c(NC(=O)CNC2(C(=O)O)CCC2)s1 [Example 164, 1-({[5-Ethyl-3-(4-trifluoromethoxy-benzoyl)-thiophen-2-ylcarbamoyl]-methyl}-amino)-cyclobutanecarboxylic acid]
100 to 1000 nM	CCc1cc(C(=O)c2ccc(OC(F)(F)F)cc2)c(NC(=O)CN2CCCCC2C(=O)O)s1 (stereo not shown) [Example 165, 1-{[5-Ethyl-3-(4-trifluoromethoxy-benzoyl)-thiophen-2-ylcarbamoyl]-methyl}-piperidine-2-carboxylic acid]
100 to 1000 nM	CCc1cc(C(=O)c2ccc(OC(F)(F)F)cc2)c(NC(=O)CNC2(C(=O)O)CCCCC2)s1 [Example 166, 1-({[5-Ethyl-3-(4-trifluoromethoxy-benzoyl)-thiophen-2-ylcarbamoyl]-methyl}-amino)-cyclohexanecarboxylic acid]
1000 to 30000 nM	CCc1cc(C(=O)c2ccc(OC(F)(F)F)cc2)c(NC(=O)CN2CCC[C@H]2C(=O)O)s1 [Example 167, (S)-1-{[5-Ethyl-3-(4-trifluoromethoxy-benzoyl)-thiophen-2-ylcarbamoyl]-methyl}-pyrrolidine-2-carboxylic acid]
100 to 1000 nM	CCc1cc(C(=O)c2ccc(OC(F)(F)F)cc2)c(NC(=O)CN2CCC[C@@H]2C(=O)O)s1 [Example 168, (R)-1-{[5-Ethyl-3-(4-trifluoromethoxy-benzoyl)-thiophen-2-ylcarbamoyl]-methyl}-pyrrolidine-2-carboxylic acid]
100 to 1000 nM	CCc1cc(C(=O)c2ccc(OC(F)(F)F)c(Cl)c2)c(NC(=O)CN[C@H](C(=O)O)C(C)C)s1 [Example 169, (S)-2-({[3-(3-Chloro-4-trifluoromethoxy-benzoyl)-5-ethyl-thiophen-2-ylcarbamoyl]-methyl}-amino)-3-methyl-butyric acid]
100 to 1000 nM	CCc1cc(C(=O)c2ccc(Cl)c(Cl)c2)c(NC(=O)CN[C@H](C(=O)O)C(C)C)s1 [Example 170, (S)-2-({[3-(3,4-Dichloro-benzoyl)-5-ethyl-thiophen-2-ylcarbamoyl]-methyl}-amino)-3—methyl-butyric acid]
< 100 nM	CCc1cc(C(=O)c2ccc(OC(F)(F)F)c(Cl)c2)c(NC(=O)CNC(C)(C)C(=O)O)s1 [Example 171, 2-({[3-(3-Chloro-4-trifluoromethoxy-benzoyl)-5-ethyl-thiophen-2-ylcarbamoyl]-methyl}-amino)-2-methyl-propionic acid]
100 to 1000 nM	CCc1cc(C(=O)c2ccc(OC(F)(F)F)cc2)c(NC(=O)CN2CCC[C@]2(C)C(=O)O)s1 [Example 172, (R)-1-{[5-Ethyl-3-(4-trifluoromethoxy-benzoyl)-thiophen-2-ylcarbamoyl]-methyl}-2-methyl-pyrrolidine-2-carboxylic acid]
100 to 1000 nM	CCc1cc(C(=O)c2ccc(OC(F)(F)F)cc2)c(NC(=O)CN2CCCC2(C)C(=O)O)s1 (stereo not shown) [Example 173, 1-{[5-Ethyl-3-(4-trifluoromethoxy-benzoyl)-thiophen-2-ylcarbamoyl]-methyl}-2-methyl-pyrrolidine-2-carboxylic acid]
< 100 nM	CCc1cc(C(=O)c2ccc(OC(F)(F)F)cc2)c(NC(=O)CC(C)CC(=O)O)s1 (stereo not shown) [Example 174, 4-[5-Ethyl-3-(4-trifluoromethoxy-benzoyl)-thiophen-2-ylcarbamoyl]-3-methyl-butyric acid]
100 to 1000 nM	CCc1cc(C(=O)c2ccc(OCC(F)(F)F)cc2)c(NC(=O)CSCC(=O)O)s1 [Example 175, ({5-Ethyl-3-[4-(2,2,2-trifluoro-ethoxy)-benzoyl]-thiophen-2-ylcarbamoyl}-methylsulfanyl)-acetic acid]
1000 to 30000 nM	CCc1cc(C(=O)c2ccc(OC(F)(F)F)cc2)c(NC(=O)C2CCCN(CC(=O)O)C2)s1 (stereo not shown) [Example 176, {3-[5-Ethyl-3-(4-trifluoromethoxy-benzoyl)-thiophen-2-ylcarbamoyl]-piperidin-1-yl}-acetic acid]
